According to patent US20060210479A1 (Dow Global Technologies Inc., priority 2004, published 2006):
“Also recorded” adds a separate entry of the source. Marks after values point to notes of the source that are not given here.

Key:
[1] = system: HEK293 cells; test: Permeability: detection of chelate compounds in the cytoplasm; format: cell-based, human; parameters: key: Absence = 0; presence = +; conditions: 50 μM, 90 minutes at 37 °C
Description: (§1) Cell cultures. LNCaP cell line is a human prostate carcinoma. Cells were grown in RPMI 1640 Medium supplemented 10% FBS, 2 mM L-glutamine, glucose (2 g/L) augmented with gentamicin (50 μg/mL), penicillin/streptomycin (100 IU/mL/100 μg/mL) and amphotericin B (2.5 μg/mL). Caco-2 cell line is a human colorectal carcinoma. These cells were grown in Eagle's Minimum Essential Medium supplemented with 20% FBS, Earle's BSS, 2 mM L-glutamine, 1.0 mM sodium pyruvate, 0.1 mM nonessential amino acids augmented with gentamicin (50 μg/mL), penicillin/streptomycin (100 IU/mL/100 μg/mL), and amphotericin B (2.5 μg/mL). The human kidney transformed cells HEK293 were grown in Eagle's Minimum Essential Medium (EMEM) supplemented with 10% (v/v) heat-inactivated fetal bovine serum, sodium pyruvate, nonessential amino acids and antibiotics in a humidified 5% CO2 atmosphere at 37° C. Medium and supplements were purchased from Gibco BRL (Grand Island, N.Y.) and all cell lines were obtained from ATCC.
(§2) Detection of chelant compounds for the determination of permeability. Cells were grown to confluence in T-150 flasks (about 2×10^7 cells). Before treating with chelate compounds, cells were rinsed twice with warm 10 mM HEPES (Gibco BRL, Grand Island N.Y.), removed from the flask, and transferred to a 50-mL conical tube and centrifuged (400×g) for 5 minutes. The resulting cells were treated with individual chelate compounds with 50 μM of chelate compounds in 10 mM HEPES, pH 7.4, 5 mM KCl, 150 mM NaCl, 0.7 mM NaH2PO4 for 90 minutes at 37° C. After treatment, cells were pelleted by centrifugation, the cytoplasm was extracted by Mem-PER Eukaryotic Membrane Protein Extraction Reagent Kit as described by manufacturers (Pierce biotechnology, Rockford, Ill.) and the resulting solution was analyzed by a combination of HPLC and mass spectrometry (Table 8).

[2] = system: Caco-2 cells; test: as above; format: cell-based, human; parameters: key to Permeability Caco-2: Absence = 0; presence = +; conditions: for Permeability Caco-2: 50 μM, 90 minutes at 37 °C, detection in the cytoplasm; for detection within the cytoplasm: carcinoma cell line Caco-2
Description: as §1, §2

[3] = system: LNCaP cells; test: as above; format: cell-based, human; parameters: key to Permeability LNCaP: Absence = 0; presence = +; conditions: for Permeability LNCaP: 50 μM, 90 minutes at 37 °C, detection in the cytoplasm; for detection within the cytoplasm: carcinoma cell line LNCaP
Description: as §1, §2

[4] = system: Caco-2 cells; test: Adsorption of chelate compounds to cells (HPLC and mass spectrometry); format: cell-based, human; conditions: for Adsorption Caco-2: 50 µM chelate compound, 0, 30 and 90 minutes at 37 °C, % adsorbed relative to time zero
Source text: (§3) As a prerequisite for the understanding of the functional attributes of Tb-PCTMB and Eu-QCTME for diagnostics and therapeutic purposes, and for other uses, it is useful to synthesize a series of chelate compounds that contain structural elements of both PCTMB and QCTME and test these compounds for adsorption and permeability to different cell lines. The first approach was to test for adsorption to a normal cell line (HEK293) and to two epithelial cancer cell lines (LNCaP and Caco-2). The second approach, described in this example, involves testing only the compounds that adsorbed in the cancer cell lines and not in the normal cell lines for permeability. Adsorption and permeability of the compounds to epithelial cancer cell lines and a normal cell line was measured through the detection of the compound by HPLC and mass spectrometry.
as §1
(§4) Detection of chelate compounds for the determination of adsorption. Cells were grown to confluence in T-150 flasks (about 2×10^7 cells). Before treating with chelate compounds, cells were rinsed twice with warm 10 mM HEPES (Gibco BRL, Grand Island N.Y.), removed from the flask, and transferred to a 50-mL conical tube and centrifuged (400×g) for 5 minutes. The resulting cells were treated with individual chelate compounds with 50 µM of chelate compounds in 10 mM HEPES, pH 7.4, 5 mM KCl, 150 mM NaCl, 0.7 mM NaH2PO4 for 0, 30, and 90 minutes at 37 ° C. After treatment, cells were pelleted by centrifugation and the resulting solution was analyzed by a combination of HPLC and mass spectrometry.

[5] = system: HEK293 cells; test: as above; format: cell-based, human; conditions: for Adsorption HEK293: 50 µM chelate compound, 0, 30 and 90 minutes at 37 °C, % adsorbed relative to time zero
Source text: as §3, §1, §4

[6] = system: LNCaP cells; test: as above; format: cell-based, human; conditions: for Adsorption LNCaP: 50 µM chelate compound, 0, 30 and 90 minutes at 37 °C, % adsorbed relative to time zero
Source text: as §3, §1, §4

[7] = Solubility of chelate compounds; conditions: <5% methanol, ethanol, or DMSO
[8] = biological target: T1, Amphiphysin I (Homo sapiens, UniProt P49418); test: Elution and identification of target-chelate compound associations; format: binding
T1 construct: Caco-2 and LNCaP cell lines were lysed by sonication or by lysis in hypotonic buffer; endogenous in cells; host or cells: Caco-2 and LNCaP
T1 sequence (P49418 1-653 isoform P49418-2): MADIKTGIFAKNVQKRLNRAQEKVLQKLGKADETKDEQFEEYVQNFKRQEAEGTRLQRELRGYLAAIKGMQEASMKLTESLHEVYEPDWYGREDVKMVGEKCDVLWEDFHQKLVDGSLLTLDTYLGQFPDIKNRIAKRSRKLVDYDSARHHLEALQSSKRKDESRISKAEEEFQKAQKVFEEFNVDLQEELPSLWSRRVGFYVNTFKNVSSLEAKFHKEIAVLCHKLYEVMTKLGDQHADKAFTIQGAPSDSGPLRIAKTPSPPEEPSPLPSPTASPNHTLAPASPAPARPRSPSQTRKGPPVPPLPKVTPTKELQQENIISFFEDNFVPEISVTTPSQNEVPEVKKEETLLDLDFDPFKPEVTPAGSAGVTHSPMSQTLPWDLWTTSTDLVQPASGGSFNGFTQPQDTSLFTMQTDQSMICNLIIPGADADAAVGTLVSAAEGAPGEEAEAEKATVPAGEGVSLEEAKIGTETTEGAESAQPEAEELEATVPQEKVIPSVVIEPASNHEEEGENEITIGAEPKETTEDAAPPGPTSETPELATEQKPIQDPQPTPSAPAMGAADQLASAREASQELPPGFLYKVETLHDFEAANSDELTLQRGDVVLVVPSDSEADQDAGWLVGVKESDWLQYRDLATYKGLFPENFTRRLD
Description: (§5) Identification of novel target-chelate compound associations—Caco-2 and LNCaP cell lines were lysed by sonication or by lysis in hypotonic buffer. Soluble proteins were enriched and captured on an affinity support column. […] Proteins were eluted by adding different chelate compounds that compete for the bound ligand or change the steric structure of a given protein(s). Eluted samples were analyzed by high resolution SDS-PAGE. The protein-chelate compound associations were further analyzed to identify the different proteins by excising the corresponding protein bands from the gel, which was then treated with trypsin and purified. […]

[9] = biological target: T2, BiP (Homo sapiens, UniProt P11021); test: as above; format: binding
T2 construct: Caco-2 and LNCaP cell lines were lysed by sonication or by lysis in hypotonic buffer; endogenous in cells; host or cells: Caco-2 and LNCaP
T2 sequence (P11021 19-654): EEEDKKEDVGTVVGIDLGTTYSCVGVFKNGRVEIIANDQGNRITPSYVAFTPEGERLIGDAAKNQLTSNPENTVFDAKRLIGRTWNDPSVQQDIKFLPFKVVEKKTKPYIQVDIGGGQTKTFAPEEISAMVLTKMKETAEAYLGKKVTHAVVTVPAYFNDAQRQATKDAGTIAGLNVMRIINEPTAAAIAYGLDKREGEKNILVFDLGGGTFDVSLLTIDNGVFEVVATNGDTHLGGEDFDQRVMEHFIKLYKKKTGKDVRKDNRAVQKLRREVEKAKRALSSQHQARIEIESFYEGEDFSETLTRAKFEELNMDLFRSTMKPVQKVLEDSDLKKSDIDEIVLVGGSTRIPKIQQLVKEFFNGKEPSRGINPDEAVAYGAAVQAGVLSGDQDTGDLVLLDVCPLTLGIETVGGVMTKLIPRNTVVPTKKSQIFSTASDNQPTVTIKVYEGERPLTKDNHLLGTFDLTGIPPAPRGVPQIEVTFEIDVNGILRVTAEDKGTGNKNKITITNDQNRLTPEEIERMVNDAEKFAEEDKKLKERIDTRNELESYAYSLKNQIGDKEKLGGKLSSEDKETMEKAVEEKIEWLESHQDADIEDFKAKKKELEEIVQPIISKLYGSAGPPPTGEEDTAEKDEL
Description: as §5

[10] = biological target: T3, Keratin 18 (Homo sapiens, UniProt P05783); test: as above; format: binding
T3 construct: Caco-2 and LNCaP cell lines were lysed by sonication or by lysis in hypotonic buffer; endogenous in cells; host or cells: Caco-2 and LNCaP
T3 sequence (P05783 2-430 limits assumed): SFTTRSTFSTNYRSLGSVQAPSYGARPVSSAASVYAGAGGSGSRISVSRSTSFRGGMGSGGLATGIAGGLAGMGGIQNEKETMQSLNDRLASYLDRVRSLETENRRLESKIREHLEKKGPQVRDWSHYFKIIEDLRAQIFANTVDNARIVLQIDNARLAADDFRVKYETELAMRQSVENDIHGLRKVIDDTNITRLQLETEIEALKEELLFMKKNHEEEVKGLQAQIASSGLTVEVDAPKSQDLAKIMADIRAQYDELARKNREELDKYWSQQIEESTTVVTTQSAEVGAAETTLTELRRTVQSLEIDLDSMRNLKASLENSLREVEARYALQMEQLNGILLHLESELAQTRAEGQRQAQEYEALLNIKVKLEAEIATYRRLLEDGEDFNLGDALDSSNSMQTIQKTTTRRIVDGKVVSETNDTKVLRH
T3 sequence (P05787 1-483 partner): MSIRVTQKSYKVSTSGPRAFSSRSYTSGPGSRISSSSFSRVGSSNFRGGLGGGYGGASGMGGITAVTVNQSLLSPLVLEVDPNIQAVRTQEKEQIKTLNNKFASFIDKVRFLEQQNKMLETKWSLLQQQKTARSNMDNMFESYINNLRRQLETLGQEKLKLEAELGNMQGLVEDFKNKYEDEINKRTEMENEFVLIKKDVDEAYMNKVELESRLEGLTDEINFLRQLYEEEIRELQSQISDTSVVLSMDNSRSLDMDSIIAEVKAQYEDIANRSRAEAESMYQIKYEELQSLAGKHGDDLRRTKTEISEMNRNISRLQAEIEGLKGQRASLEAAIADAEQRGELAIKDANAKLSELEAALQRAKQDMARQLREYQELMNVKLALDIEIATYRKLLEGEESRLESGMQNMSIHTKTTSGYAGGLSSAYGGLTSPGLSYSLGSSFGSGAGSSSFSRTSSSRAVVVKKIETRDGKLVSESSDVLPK
Description: as §5

[11] = biological target: T4, Cytokeratin 8 (Homo sapiens, UniProt P05787); test: as above; format: binding
T4 construct: Caco-2 and LNCaP cell lines were lysed by sonication or by lysis in hypotonic buffer; endogenous in cells; host or cells: Caco-2 and LNCaP
T4 sequence (P05787 1-483): T3 sequence (P05787 1-483 partner)
T4 sequence (P05783 2-430 partner limits assumed): T3 sequence (P05783 2-430 limits assumed)
Description: as §5

Compound | Permeability HEK293 [1] | Permeability Caco-2 [2] | detection within the cytoplasm [2] | Permeability LNCaP [3] | detection within the cytoplasm [3] | adsorption in carcinoma cell line Caco-2 [4] | Adsorption Caco-2 [4] | adsorption in normal cells (HEK293) [5] | Adsorption HEK293 [5] | adsorption in carcinoma cell line LNCaP [6] | Adsorption LNCaP [6] | solubility [7] [mM] | binding to amphiphysin I (Seq. ID No. 7) [8] | binding to BiP (Seq. ID No. 5) [9] | binding to keratin 18 (Seq. ID No. 9) [10] | binding to cytokeratin 8 (Seq. ID No. 10) [11]
CCOP(=O)(O)Cc1ccc2cc(C)ccc2n1 [Compound 2] | 0^b | + | detected within the cytoplasm | + | detected within the cytoplasm | adsorbed | ++ (++ = 21-40%) | not adsorbed | 0 (0 = 0-10%) | adsorbed | ++ (++ = 21-40%) | > 10 | found to bind; also recorded: bind specifically | found to bind; also recorded: bind specifically |  | 
CCCCOP(=O)(O)Cc1ccc2cc(C)ccc2n1 [Compound 3] | 0 | + | detected within the cytoplasm | + | detected within the cytoplasm | adsorbed | ++ (++ = 21-40%) | not adsorbed | 0 (0 = 0-10%) | adsorbed | ++++ (++++ = >60%) | > 10 | found to bind; also recorded: bind specifically | found to bind; also recorded: bind specifically |  | 
CCOP(=O)(O)Cc1cc(CP(=O)(O)OCC)cc(CP(=O)(O)OCC)c1 [Compound 8, [3,5-Bis-(Ethoxy-hydroxy-phosphorylmethyl)-benzyl]-phosphonic acid monoethyl ester] | 0 | + | detected within the cytoplasm | + | detected within the cytoplasm | adsorbed | +++ (+++ = 41-60%) | not adsorbed | 0 (0 = 0-10%) | adsorbed | +++ (+++ = 41-60%) | > 10 |  |  | found to bind; also recorded: bind specifically | found to bind; also recorded: bind specifically
CCCCOP(=O)(O)Cc1cc(CP(=O)(O)OCCCC)cc(CP(=O)(O)OCCCC)c1 [Compound 9, [3,5-Bis-(Butoxy-hydroxy-phosphorylmethyl)-benzyl]-phosphonic acid monobutyl ester] | 0 | + | detected within the cytoplasm | + | detected within the cytoplasm | adsorbed | ++ (++ = 21-40%) | not adsorbed | 0 (0 = 0-10%) | adsorbed | ++ (++ = 21-40%) | > 10 |  |  | found to bind; also recorded: bind specifically | found to bind; also recorded: bind specifically
CCCCOP(=O)(O)Cc1c(C)c(CP(=O)(O)OCCCC)c(C)c(CP(=O)(O)OCCCC)c1C [Compound 12, [3,5-Bis-(Butoxy-hydroxy-phosphorylmethyl)-2,4,6-trimethyl-benzyl]-phosphonic acid monobutyl ester] | 0 | + | detected within the cytoplasm | + | detected within the cytoplasm | adsorbed | ++++ (++++ = >60%) | not adsorbed | 0 (0 = 0-10%) | adsorbed | +++ (+++ = 41-60%) | > 10 |  |  | found to bind; also recorded: bind specifically | found to bind; also recorded: bind specifically
